Source: PubChem BioAssay AID242 (DTP/NCI, 2004)
“And” between values parts separate entries of the source, which are not always exact repeats. Identical values can stand only once. Inconclusive results and toxic doses are left out.

System: BDF1 mice, Lymphoma 8 ip, survival T/C
Assay: NCI In Vivo Anticancer Drug Screen. Data for tumor model Lymphoma 8 (intraperitoneal) in B6D2F1 (BDF1) mice
Settings: higher = longer survival
Protocol: The antitumor activity of compounds was measured in mice bearing transplantable tumors. Survival or tumor size were measured and the results are expressed as the measurement made in the treated group (T) divided by the measurement made in the vehicle treated control group (C). The tumor model used in this assay is Lymphoma 8 (intraperitoneal) in B6D2F1 (BDF1) mice

[1] = endpoint: survival time, mean or median, dose: 3.13 mg/kg/injection, schedule: Q01DX010 (ip), vehicle: saline
[2] = endpoint: survival time, mean or median, dose: 12.5 mg/kg/injection, schedule: Q01DX010 (ip), vehicle: saline
[3] = endpoint: survival time, mean or median, dose: 25.0 mg/kg/injection, schedule: Q01DX010 (ip), vehicle: saline
[4] = endpoint: survival time, mean or median, dose: 5.0 mg/kg/injection, schedule: Q01DX010 (ip), vehicle: saline
[5] = endpoint: survival time, mean or median, dose: 20.0 mg/kg/injection, schedule: Q01DX010 (ip), vehicle: saline
[6] = endpoint: survival time, mean or median, dose: 62.5 mg/kg/injection, schedule: Q01DX010 (ip), vehicle: saline
[7] = endpoint: survival time, mean or median, dose: 125.0 mg/kg/injection, schedule: Q01DX010 (ip), vehicle: saline
[8] = endpoint: survival time, mean or median, dose: 250.0 mg/kg/injection, schedule: Q01DX010 (ip), vehicle: saline
[9] = endpoint: survival time, mean or median, dose: 500.0 mg/kg/injection, schedule: Q01DX010 (ip), vehicle: saline

In the case of CC(CCC(C)OS(C)(=O)=O)OS(C)(=O)=O (stereo unspecified), the T/C (endpoint: survival time, mean or median, dose: 2.0 mg/kg/injection, schedule: Q01DX010 (ip), vehicle: saline) is reported as 92 % of control and 100 % of control, the T/C (endpoint: survival time, mean or median, dose: 4.0 mg/kg/injection, schedule: Q01DX010 (ip), vehicle: saline) is reported as 103 % of control and 104 % of control and the T/C (endpoint: survival time, mean or median, dose: 8.0 mg/kg/injection, schedule: Q01DX010 (ip), vehicle: saline) is reported as 103 % of control and 104 % of control. The T/C (endpoint: survival time, mean or median, dose: 16.0 mg/kg/injection, schedule: Q01DX010 (ip), vehicle: saline) was 100 % of control and 116 % of control.

N=[N+]=CC(=O)OCC(N)C(=O)O (stereo unspecified) was tested, and the T/C [1] was 116 % of control, the T/C [2] was 150 % of control and the T/C [3] was 87 % of control and 91 % of control.

O=c1[nH]cc(F)c(=O)[nH]1 was tested, and the T/C (endpoint: median survival time, dose: 28.8 mg/kg/injection, schedule: Q04DX003 (ip), vehicle: saline) was 155 % of control, the T/C (endpoint: median survival time, dose: 48.0 mg/kg/injection, schedule: Q04DX003 (ip), vehicle: saline) was 277 % of control and the T/C (endpoint: median survival time, dose: 80.0 mg/kg/injection, schedule: Q04DX003 (ip), vehicle: saline) was 331 % of control. The T/C [4] was 108 % of control and 114 % of control and the T/C [5] was 153 % of control and 158 % of control.

With OCC1OC(n2cnc3c(Cl)ncnc32)C(O)C1O (stereo unspecified) the T/C [6] was 90 % of control and 105 % of control, the T/C [7] was 95 % of control and 100 % of control and 105 % of control and the T/C [8] was 90 % of control and 95 % of control and 105 % of control. For the same molecule, the T/C [9] was 97 % of control and 104 % of control and 115 % of control.

In the case of Nc1nc(=S)c2[nH]cnc2[nH]1, the T/C (endpoint: survival time, mean or median, dose: 1.25 mg/kg/injection, schedule: Q01DX010 (ip), vehicle: other) is reported as 120 % of control, the T/C (endpoint: survival time, mean or median, dose: 5.0 mg/kg/injection, schedule: Q01DX010 (ip), vehicle: other) is reported as 115 % of control and the T/C (endpoint: survival time, mean or median, dose: 10.0 mg/kg/injection, schedule: Q01DX010 (ip), vehicle: other) is reported as 110 % of control.

With CN(N=O)C(N)=O the T/C [4] was 114 % of control and the T/C [5] was 110 % of control.

For CCCCN(CCCC)CCCCCN, the T/C (endpoint: survival time, mean or median, dose: 5.0 mg/kg/injection, schedule: Q01DX015 (ip), vehicle: carboxymethylcellulose (CMC)) was 99 % of control, the T/C (endpoint: survival time, mean or median, dose: 10.0 mg/kg/injection, schedule: Q01DX015 (ip), vehicle: carboxymethylcellulose (CMC)) was 101 % of control and the T/C (endpoint: survival time, mean or median, dose: 20.0 mg/kg/injection, schedule: Q01DX015 (ip), vehicle: carboxymethylcellulose (CMC)) was 104 % of control. For the same molecule, the T/C (endpoint: survival time, mean or median, dose: 30.0 mg/kg/injection, schedule: Q01DX015 (ip), vehicle: carboxymethylcellulose (CMC)) was 99 % of control.

For CN(C)C(=S)N=Nc1c(O)[nH]c2ccccc12, the T/C (endpoint: survival time, mean or median, dose: 25.0 mg/kg/injection, schedule: Q01DX015 (ip), vehicle: carboxymethylcellulose (CMC)) was 124 % of control and the T/C (endpoint: survival time, mean or median, dose: 100.0 mg/kg/injection, schedule: Q01DX015 (ip), vehicle: carboxymethylcellulose (CMC)) was 104 % of control.

For N#[N+]c1cnc([O-])[nH]c1=O, the T/C (endpoint: survival time, mean or median, dose: 1.25 mg/kg/injection, schedule: Q01DX010 (ip), vehicle: saline) was 107 % of control, the T/C (endpoint: survival time, mean or median, dose: 2.5 mg/kg/injection, schedule: Q01DX010 (ip), vehicle: saline) was 103 % of control and the T/C [4] was 121 % of control. The T/C (endpoint: survival time, mean or median, dose: 10.0 mg/kg/injection, schedule: Q01DX010 (ip), vehicle: saline) was 121 % of control.

With CC(=O)N(C)C the T/C [6] was 86 % of control and 105 % of control and 121 % of control, the T/C [7] was 95 % of control and 100 % of control and 112 % of control and the T/C [8] was 95 % of control and 105 % of control. For the same molecule, the T/C [9] was 95 % of control and 100 % of control and 115 % of control.

In the case of COc1ccccc1CNCCO, the T/C (endpoint: survival time, mean or median, dose: 50.0 mg/kg/injection, schedule: Q01DX010 (ip), vehicle: saline) is reported as 103 % of control, the T/C (endpoint: survival time, mean or median, dose: 100.0 mg/kg/injection, schedule: Q01DX010 (ip), vehicle: saline) is reported as 103 % of control and the T/C (endpoint: survival time, mean or median, dose: 200.0 mg/kg/injection, schedule: Q01DX010 (ip), vehicle: saline) is reported as 93 % of control.

With Nc1nc2n[nH]nc2c(=O)[nH]1 the T/C (endpoint: survival time, mean or median, dose: 25.0 mg/kg/injection, schedule: Q01DX010 (ip), vehicle: alkali diluted with saline) was 108 % of control, the T/C (endpoint: survival time, mean or median, dose: 50.0 mg/kg/injection, schedule: Q01DX010 (ip), vehicle: alkali diluted with saline) was 104 % of control and 112 % of control and the T/C (endpoint: survival time, mean or median, dose: 100.0 mg/kg/injection, schedule: Q01DX010 (ip), vehicle: alkali diluted with saline) was 112 % of control and 116 % of control. For the same molecule, the T/C (endpoint: survival time, mean or median, dose: 200.0 mg/kg/injection, schedule: Q01DX010 (ip), vehicle: alkali diluted with saline) was 116 % of control.

In the case of C[C@H]1C(=O)O[C@@H]2CCN3CC=C(COC(=O)[C@](C)(O)[C@@]1(C)O)[C@H]23, the T/C [1] is reported as 116 % of control, the T/C (endpoint: survival time, mean or median, dose: 6.25 mg/kg/injection, schedule: Q01DX010 (ip), vehicle: saline) is reported as 100 % of control and the T/C [2] is reported as 104 % of control. For the same molecule, the T/C [3] was 104 % of control.
